# According to US11319299B2, “Substituted carboxamides as inhibitors of WDR5 protein-protein binding” (PROPELLON THERAPEUTICS INC., priority 2016, dated 2022):
# Molecular target: WDR5 (Homo sapiens (Human), UniProt P61964)
# Assay: Surface Plasmon Resonance (SPR) assay, KD and residence time
# Type: binding
# Settings: surface plasmon resonance (SPR) assay; read-out: WDR5 binding affinity (KD)
row,Kd [nM],Compound
1,7.46,"C[C@@H]1CN(c2cc(F)c(C3=CCN(CC4CC4)CC3)cc2NC(=O)c2c[nH]c(=O)cc2C(F)(F)F)C[C@H](C)N1C [Example 151, N-[5-[1-(cyclopropylmethyl)-3,6-dihydro-2H-pyridin-4-yl]-4-fluoro-2-[(3R,5S)-3,4,5-trimethylpiperazin-1-yl]phenyl]-6-oxo-4-(trifluoromethyl)-1H-pyridine-3-carboxamide]"
2,0.59,"C[C@@H]1CN(c2cc(F)c(-c3cnc(N(C)C4CCOCC4)nc3)cc2NC(=O)c2c[nH]c(=O)cc2C(F)(F)F)C[C@H](C)N1C [Example 371, N-[4-fluoro-5-[2-[methyl(oxan-4-yl)amino]pyrimidin-5-yl]-2-[(3R,5S)-3,4,5-trimethylpiperazin-1-yl]phenyl]-6-oxo-4-(trifluoromethyl)-1H-pyridine-3-carboxamide]"
3,0.54,"COc1ccc(CN2CC=C(c3cc(NC(=O)c4c[nH]c(=O)cc4C(F)(F)F)c(N4C[C@@H](C)N(C)[C@@H](C)C4)cc3F)CC2)cc1 [Example 148, N-[4-fluoro-5-[1-[(4-methoxyphenyl)methyl]-3,6-dihydro-2H-pyridin-4-yl]-2-[(3R,5S)-3,4,5-trimethylpiperazin-1-yl]phenyl]-6-oxo-4-(trifluoromethyl)-1H-pyridine-3-carboxamide]"
4,2.41,"COc1cc(-c2cc(NC(=O)c3c[nH]c(=O)cc3C(F)(F)F)c(N3C[C@@H](C)N(C)[C@@H](C)C3)cc2F)cnc1OC [Example 104, N-[5-(5,6-dimethoxypyridin-3-yl)-4-fluoro-2-[(3R,5S)-3,4,5-trimethylpiperazin-1-yl]phenyl]-6-oxo-4-(trifluoromethyl)-1H-pyridine-3-carboxamide]"
5,66.1,"CN(C)C1CCN(c2cc(F)c(-c3cnc(N4CCOCC4)nc3)cc2NC(=O)c2c[nH]c(=O)cc2C(F)(F)F)CC1 [Example 258, N-[2-[4-(dimethylamino)piperidin-1-yl]-4-fluoro-5-(2-morpholin-4-ylpyrimidin-5-yl)phenyl]-6-oxo-4-(trifluoromethyl)-1H-pyridine-3-carboxamide]"
6,7.3,"C[C@@H]1CN(c2cc(F)c(C3=CCCN(C(=O)OC(C)(C)C)C3)cc2NC(=O)c2cn(C)c(=O)cc2C(F)(F)F)C[C@H](C)N1C [Example 325, tert-butyl 5-[2-fluoro-5-[[-methyl-6-oxo-4-(trifluoromethyl)pyridine-3-carbonyl]amino]-4-[(3R,5S)-3,4,5-trimethylpiperazin-1-yl]phenyl]-3,6-dihydro-2H-pyridine-1-carboxylate]"
7,> 200,"CN(C)[C@@H]1CCN(c2cc(F)c(-c3ccc(N4CCOCC4)cc3)cc2NC(=O)c2cn[nH]c2)C1 [Example 177, N-[4-fluoro-5-(4-morpholin-4-ylphenyl)-2-[(3R)-3-(dimethylamino)pyrrolidin-1-yl]phenyl]-1H-pyrazole-4-carboxamide]"
8,1.98,"C[C@@H]1CN(c2cc(F)c(-c3cnc(N4CCOCC4)nc3)cc2NC(=O)c2c(O)cnc3ccccc23)C[C@H](C)N1C [Example 282, N-[4-fluoro-5-(2-morpholin-4-ylpyrimidin-5-yl)-2-[(3R,5S)-3,4,5-trimethylpiperazin-1-yl]phenyl]-3-hydroxyquinoline-4-carboxamide]"
9,3.85,"C[C@@H]1CN(c2cc(F)c(-c3cncc(Cl)c3)cc2NC(=O)c2c[nH]c(=O)cc2C(F)(F)F)C[C@H](C)N1C [Example 206, N-[5-(5-chloropyridin-3-yl)-4-fluoro-2-[(3R,5S)-3,4,5-trimethylpiperazin-1-yl]phenyl]-6-oxo-4-(trifluoromethyl)-1H-pyridine-3-carboxamide]"
10,3.05,"C[C@@H]1CN(c2cc(F)c(C3=CCN(C(=O)OC(C)(C)C)C3)cc2NC(=O)c2cn(C)c(=O)cc2C(F)(F)F)C[C@H](C)N1C [Example 326, tert-butyl 3-[2-fluoro-5-[[-methyl-6-oxo-4-(trifluoromethyl)pyridine-3-carbonyl]amino]-4-[(3R,5S)-3,4,5-trimethylpiperazin-1-yl]phenyl]-2,5-dihydropyrrole-1-carboxylate]"
11,1.08,"C[C@@H]1CN(c2cc(F)c(C3=CCN(Cc4ccc(F)cc4)CC3)cc2NC(=O)c2c[nH]c(=O)cc2C(F)(F)F)C[C@H](C)N1C [Example 153, N-[4-fluoro-5-[1-[(4-fluorophenyl)methyl]-3,6-dihydro-2H-pyridin-4-yl]-2-[(3R,5S)-3,4,5-trimethylpiperazin-1-yl]phenyl]-6-oxo-4-(trifluoromethyl)-1H-pyridine-3-carboxamide]"
12,1.64,"C[C@@H]1CN(c2cc(F)c(-c3ccc(N4CCCC4)nc3)cc2NC(=O)c2c[nH]c(=O)cc2C(F)(F)F)C[C@H](C)N1C [Example 261, N-[4-fluoro-5-(6-pyrrolidin-1-ylpyridin-3-yl)-2-[(3R,5S)-3,4,5-trimethylpiperazin-1-yl]phenyl]-6-oxo-4-(trifluoromethyl)-1H-pyridine-3-carboxamide]"

# Same assay, conditions: surface plasmon resonance (SPR); read-out: WDR5 binding affinity (KD)
row,Kd [nM],Compound
1,2.76,"C[C@@H]1CN(c2cc(F)c(-c3ccc(C(=O)NC4CCCCC4)c(F)c3)cc2NC(=O)c2c[nH]c(=O)cc2C(F)(F)F)C[C@H](C)N1C [Example 732, N-[5-[4-(cyclohexylcarbamoyl)-3-fluorophenyl]-4-fluoro-2-[(3R,5S)-3,4,5-trimethylpiperazin-1-yl]phenyl]-6-oxo-4-(trifluoromethyl)-1H-pyridine-3-carboxamide]"
2,2.87,"CC1CN(c2cc(F)c(-c3cccc(N4CCNCC4)n3)cc2NC(=O)c2c[nH]c(=O)cc2C(F)(F)F)CCN1C (stereo in doubt) [Example 742, N-[4-fluoro-5-(6-piperazin-1-ylpyridin-2-yl)-2-[(3R)-3,4-dimethylpiperazin-1-yl]phenyl]-6-oxo-4-(trifluoromethyl)-1H-pyridine-3-carboxamide]"
3,7.99,"C[C@@H]1CN(c2cc(F)c(C3=CCCN(C(=O)OC4CC(F)(F)C4)CC3)cc2NC(=O)c2c[nH]c(=O)cc2C(F)F)C[C@H](C)N1C [Example 730, (3,3-difluorocyclobutyl) 4-[5-[[4-(difluoromethyl)-6-oxo-1H-pyridine-3-carbonyl]amino]-2-fluoro-4-[(3R,5S)-3,4,5-trimethylpiperazin-1-yl]phenyl]-2,3,6,7-tetrahydroazepine-1-carboxylate]"
4,113,"COCCCN(C)C1CCN(c2cc(F)c(-c3cnc(N4CCOCC4)nc3)cc2NC(=O)c2c[nH]c(=O)cc2C(F)(F)F)C1 (stereo not shown) [Example 572, N-[4-fluoro-2-[3-[3-methoxypropyl(methyl)amino]pyrrolidin-1-yl]-5-(2-morpholin-4-ylpyrimidin-5-yl)phenyl]-6-oxo-4-(trifluoromethyl)-1H-pyridine-3-carboxamide]"
5,3.4,"C[C@@H]1CN(c2ncc(-c3cc(NC(=O)c4ccc(F)cc4C(F)(F)F)c(N4C[C@@H](C)N(C)[C@@H](C)C4)cc3F)cn2)CCO1 [Example 545, 4-fluoro-N-[4-fluoro-5-[2-[(2R)-2-methylmorpholin-4-yl]pyrimidin-5-yl]-2-[(3R,5S)-3,4,5-trimethylpiperazin-1-yl]phenyl]-2-(trifluoromethyl)benzamide]"
6,5.64,"C[C@@H]1COCCN1c1ncc(-c2cc(NC(=O)c3c[nH]c(=O)cc3C(F)(F)F)c(N3C[C@@H](C)N(C)[C@@H](C)C3)cc2F)cn1 [Example 469, N-[4-fluoro-5-[2-[(3R)-3-methylmorpholin-4-yl]pyrimidin-5-yl]-2-[(3R,5S)-3,4,5-trimethylpiperazin-1-yl]phenyl]-6-oxo-4-(trifluoromethyl)-1H-pyridine-3-carboxamide]"
7,3,"CC1CN(c2cc(F)c(-c3ccnc(N4C[C@@H](C)O[C@@H](C)C4)n3)cc2NC(=O)c2ccc(F)cc2C(F)(F)F)CCN1C (stereo in doubt) [Example 739, 4-fluoro-N-[4-fluoro-5-[2-[(2R,6S)-2,6-dimethylmorpholin-4-yl]pyrimidin-4-yl]-2-[(3R)-3,4-dimethylpiperazin-1-yl]phenyl]-2-(trifluoromethyl)benzamide]"
8,3.32,"C[C@@H]1CN(c2cc(F)c(-c3ccc(C(N)=O)c(F)c3)cc2NC(=O)c2cn(C)c(=O)cc2C(F)(F)F)C[C@H](C)N1C [Example 590, N-[5-(4-carbamoyl-3-fluorophenyl)-4-fluoro-2-[(3R,5S)-3,4,5-trimethylpiperazin-1-yl]phenyl]-1-methyl-6-oxo-4-(trifluoromethyl)pyridine-3-carboxamide]"
9,4.61,"C[C@@H]1COCCN1c1ncc(-c2cc(NC(=O)c3ccc(F)cc3C(F)(F)F)c(N3CCN(C)[C@@H](C)C3)cc2F)cn1 [Example 737, 4-fluoro-N-[4-fluoro-2-[(3S)-3,4-dimethylpiperazin-1-yl]-5-[2-[(3R)-3-methylmorpholin-4-yl]pyrimidin-5-yl]phenyl]-2-(trifluoromethyl)benzamide]"
10,4.94,"CC(C)OC(=O)N1CCC=C(c2cc(NC(=O)c3c[nH]c(=O)cc3C(F)(F)F)c(N3C[C@@H](C)N(C)[C@@H](C)C3)cc2F)CC1 [Example 674, Propan-2-yl 4-[2-fluoro-5-[[6-oxo-4-(trifluoromethyl)-1H-pyridine-3-carbonyl]amino]-4-[(3R,5S)-3,4,5-trimethylpiperazin-1-yl]phenyl]-2,3,6,7-tetrahydroazepine-1-carboxylate]"
11,2.81,"C[C@@H]1CN(c2cc(F)c(-c3nc(C(=O)N4CCN(C)CC4)cs3)cc2NC(=O)c2c[nH]c(=O)cc2C(F)(F)F)C[C@H](C)N1C [Example 487, N-[4-fluoro-5-[4-(4-methylpiperazine-1-carbonyl)-1,3-thiazol-2-yl]-2-[(3R,5S)-3,4,5-trimethylpiperazin-1-yl]phenyl]-6-oxo-4-(trifluoromethyl)-1H-pyridine-3-carboxamide]"

# The remaining lines, values behind:
row,Compound,Kd [nM]
1,"N-[4-fluoro-5-[2-[(2R)-2-propan-2-ylmorpholin-4-yl]pyrimidin-5-yl]-2-[(3S,5R)-3,4,5-trimethylpiperazin-1-yl]phenyl]-6-oxo-4-(trifluoromethyl)-1H-pyridine-3-carboxamide [Example 548]",0.5
2,"C[C@@H]1CN(c2cc(F)c(C3=CCCN(c4ncc(C=O)cn4)C3)cc2NC(=O)c2c[nH]c(=O)cc2C(F)(F)F)C[C@H](C)N1C [Example 409, N-[4-fluoro-5-[1-(5-formylpyrimidin-2-yl)-3,6-dihydro-2H-pyridin-5-yl]-2-[(3R,5S)-3,4,5-trimethylpiperazin-1-yl]phenyl]-6-oxo-4-(trifluoromethyl)-1H-pyridine-3-carboxamide]",0.229
